Measurements taken from patent publication EP4722207A1, “OXOISOINDOLINYL-SUBSTITUTED TETRAHYDROPYRIMIDINEDIONE DERIVATIVE AND USE THEREOF” (Gluetacs Therapeutics (Shanghai) Co., Ltd., priority 2023, dated 2024).

How the values were obtained:
WEE1 = target: T1, WEE1 (Homo sapiens, UniProt P30291+Q96SW2); experiment: Western-blot assay, substrate protein degradation in hPBMCs: WEE1; assay type: cell-based; settings: 24 hours of compound treatment, 50 nM and 500 nM
T1 construct: effects of the compounds of the present disclosure on the expression of target proteins in cells; endogenous in cells; host or cells: human PBMCs (hPBMCs)

CK1α = target: T2, CK1α (Homo sapiens, UniProt P48729+Q96SW2); experiment: Western-blot assay, substrate protein degradation in hPBMCs: CK1α; assay type: cell-based; settings: 24 hours of compound treatment, 50 nM and 500 nM
T2 construct: effects of the compounds of the present disclosure on the expression of target proteins in cells; endogenous in cells; host or cells: human PBMCs (hPBMCs)

H292 = experiment: Cell viability assay (CellTiter-Meiluncell Luminescent), tumor cell proliferation, H292; settings: Homo sapiens, NCI-H292, 96 h; for inhibition at 0.01 µM: read-out: Inhibition Rate at 10 nM (%); for inhibition at 0.5 µM: read-out: Inhibition Rate at 500 nM (%)
Description: The tumor cells used herein were cultured in a cell culture medium listed in table 2 at 37°C in an incubator with 5% CO2. Prior to experimentation, all cell lines used were correctly identified by STR profiling, and tested negative for mycoplasma contamination using a mycoplasma detection kit through routine screenings.
On the following day, the test compounds of the present disclosure were subjected to serial dilution. […] Subsequently, 0.5 µL of the test compound dilution was transferred into the 96-well plate containing the cells, with each well containing 100 µL of cell culture medium. […] Into the 96-well plate, the diluted test compounds and corresponding detection reagents were added, resulting in final test compound concentrations of 500 nM and 10 nM, respectively. The experimental procedure is described below using the diluted 2 µM test compound as an example.
After the cells were treated with the compounds of the present disclosure for a specified period, the cell viability assay reagent was added to the culture medium according to the kit's instructions to determine cell viability. […] All controls were treated using the same procedure as the compounds of the present disclosure. The growth inhibition curves for the compounds of the present disclosure were plotted using Prism GraphPad software, and the IC50 values were calculated therefrom.

IKZF3 = target: T3, IKZF3 (Homo sapiens, UniProt Q96SW2+Q9UKT9); experiment: Western-blot assay, substrate protein degradation in hPBMCs: IKZF3; assay type: cell-based; settings: 24 hours of compound treatment, 50 nM and 500 nM
T3 construct: effects of the compounds of the present disclosure on the expression of target proteins in cells; endogenous in cells; host or cells: human PBMCs (hPBMCs)

IKZF2 = target: T4, IKZF2 (Homo sapiens, UniProt Q96SW2+Q9UKS7); experiment: Western-blot assay, substrate protein degradation in hPBMCs: IKZF2; assay type: cell-based; settings: 24 hours of compound treatment, 50 nM and 500 nM
T4 construct: effects of the compounds of the present disclosure on the expression of target proteins in cells; endogenous in cells; host or cells: human PBMCs (hPBMCs)

IKZF1 = target: T5, IKZF1 (Homo sapiens, UniProt Q13422+Q96SW2); experiment: Western-blot assay, substrate protein degradation in hPBMCs: IKZF1; assay type: cell-based; settings: 24 hours of compound treatment, 50 nM and 500 nM
T5 construct: effects of the compounds of the present disclosure on the expression of target proteins in cells; endogenous in cells; host or cells: human PBMCs (hPBMCs)

GSPT1 = target: T6, GSPT1 (Homo sapiens, UniProt P15170+Q96SW2); experiment: Western-blot assay, substrate protein degradation in hPBMCs: GSPT1; assay type: cell-based; settings: 24 hours of compound treatment, 50 nM and 500 nM
T6 construct: effects of the compounds of the present disclosure on the expression of target proteins in cells; endogenous in cells; host or cells: human PBMCs (hPBMCs)
T6 sequence (P15170 whole entry): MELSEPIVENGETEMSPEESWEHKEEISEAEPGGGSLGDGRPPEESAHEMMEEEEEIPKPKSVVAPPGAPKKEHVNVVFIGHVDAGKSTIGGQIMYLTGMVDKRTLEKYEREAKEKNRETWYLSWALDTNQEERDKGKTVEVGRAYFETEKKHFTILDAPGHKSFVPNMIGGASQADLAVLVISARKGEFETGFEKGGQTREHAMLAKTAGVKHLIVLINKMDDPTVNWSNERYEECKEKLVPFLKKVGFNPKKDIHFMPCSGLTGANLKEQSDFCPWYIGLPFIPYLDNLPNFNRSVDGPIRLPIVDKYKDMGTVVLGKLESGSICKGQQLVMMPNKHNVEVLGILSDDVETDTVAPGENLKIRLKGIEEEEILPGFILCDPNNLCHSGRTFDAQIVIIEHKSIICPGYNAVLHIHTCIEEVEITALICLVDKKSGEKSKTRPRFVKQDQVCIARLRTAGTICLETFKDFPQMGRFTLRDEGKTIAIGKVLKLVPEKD
T6 sequence (Q96SW2 whole entry): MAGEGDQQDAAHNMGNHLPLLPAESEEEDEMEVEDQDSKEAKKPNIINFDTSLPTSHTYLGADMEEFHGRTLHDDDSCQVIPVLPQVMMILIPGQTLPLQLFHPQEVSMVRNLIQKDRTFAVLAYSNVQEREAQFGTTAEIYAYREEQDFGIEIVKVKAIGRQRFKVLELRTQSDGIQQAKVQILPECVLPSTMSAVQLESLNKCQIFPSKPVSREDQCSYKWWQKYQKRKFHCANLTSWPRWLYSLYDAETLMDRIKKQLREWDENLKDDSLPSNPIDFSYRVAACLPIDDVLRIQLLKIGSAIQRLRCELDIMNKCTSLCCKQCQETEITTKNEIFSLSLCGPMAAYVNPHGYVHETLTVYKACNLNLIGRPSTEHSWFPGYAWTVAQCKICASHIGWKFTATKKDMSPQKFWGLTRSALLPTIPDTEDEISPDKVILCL
T6 sequence (Q16531 whole entry partner): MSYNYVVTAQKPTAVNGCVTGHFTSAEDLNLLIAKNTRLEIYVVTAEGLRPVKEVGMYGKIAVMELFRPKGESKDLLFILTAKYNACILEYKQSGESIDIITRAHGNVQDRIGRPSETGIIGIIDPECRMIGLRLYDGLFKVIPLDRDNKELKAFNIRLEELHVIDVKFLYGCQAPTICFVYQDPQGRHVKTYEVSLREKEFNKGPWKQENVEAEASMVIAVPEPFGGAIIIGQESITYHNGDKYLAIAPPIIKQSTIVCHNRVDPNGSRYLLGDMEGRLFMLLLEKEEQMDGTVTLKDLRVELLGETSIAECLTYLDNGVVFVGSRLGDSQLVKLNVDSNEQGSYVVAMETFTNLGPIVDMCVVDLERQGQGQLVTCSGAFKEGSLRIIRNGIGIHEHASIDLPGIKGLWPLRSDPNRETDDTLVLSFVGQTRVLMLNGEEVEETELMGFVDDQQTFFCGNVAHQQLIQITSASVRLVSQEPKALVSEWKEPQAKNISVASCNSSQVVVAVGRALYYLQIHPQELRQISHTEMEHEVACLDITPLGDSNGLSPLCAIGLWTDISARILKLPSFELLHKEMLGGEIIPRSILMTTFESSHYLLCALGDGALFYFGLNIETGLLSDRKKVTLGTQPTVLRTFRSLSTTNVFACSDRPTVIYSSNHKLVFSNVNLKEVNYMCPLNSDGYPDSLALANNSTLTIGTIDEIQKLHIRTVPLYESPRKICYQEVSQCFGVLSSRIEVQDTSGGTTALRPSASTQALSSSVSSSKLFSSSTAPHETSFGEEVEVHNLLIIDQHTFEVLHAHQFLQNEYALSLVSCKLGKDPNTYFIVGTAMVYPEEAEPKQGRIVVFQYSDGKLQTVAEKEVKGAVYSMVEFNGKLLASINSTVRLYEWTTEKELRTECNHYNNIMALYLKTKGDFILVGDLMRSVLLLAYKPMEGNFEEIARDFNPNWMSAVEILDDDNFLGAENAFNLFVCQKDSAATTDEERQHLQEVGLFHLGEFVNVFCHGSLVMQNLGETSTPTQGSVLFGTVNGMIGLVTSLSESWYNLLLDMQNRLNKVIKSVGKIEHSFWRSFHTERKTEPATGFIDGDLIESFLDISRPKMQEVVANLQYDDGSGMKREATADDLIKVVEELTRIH

T3 sequence (Q9UKT9 whole entry): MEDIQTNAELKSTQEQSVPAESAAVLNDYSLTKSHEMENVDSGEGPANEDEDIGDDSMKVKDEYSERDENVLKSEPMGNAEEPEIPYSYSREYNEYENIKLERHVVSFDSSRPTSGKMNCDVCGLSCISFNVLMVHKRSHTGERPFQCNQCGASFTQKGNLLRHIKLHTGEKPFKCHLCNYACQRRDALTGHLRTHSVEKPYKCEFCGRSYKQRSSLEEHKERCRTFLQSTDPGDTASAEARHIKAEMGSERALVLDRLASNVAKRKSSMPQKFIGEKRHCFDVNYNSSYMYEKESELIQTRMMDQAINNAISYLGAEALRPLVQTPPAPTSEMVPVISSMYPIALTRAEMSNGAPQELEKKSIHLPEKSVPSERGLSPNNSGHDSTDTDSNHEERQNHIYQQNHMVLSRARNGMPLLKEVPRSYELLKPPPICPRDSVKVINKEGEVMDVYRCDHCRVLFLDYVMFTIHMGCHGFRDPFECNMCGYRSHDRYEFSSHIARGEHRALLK
T3 sequence (Q96SW2 whole entry): as the sequence (Q96SW2 whole entry) above
T3 sequence (Q16531 whole entry partner): as the sequence (Q16531 whole entry partner) above
T4 sequence (Q9UKS7 whole entry): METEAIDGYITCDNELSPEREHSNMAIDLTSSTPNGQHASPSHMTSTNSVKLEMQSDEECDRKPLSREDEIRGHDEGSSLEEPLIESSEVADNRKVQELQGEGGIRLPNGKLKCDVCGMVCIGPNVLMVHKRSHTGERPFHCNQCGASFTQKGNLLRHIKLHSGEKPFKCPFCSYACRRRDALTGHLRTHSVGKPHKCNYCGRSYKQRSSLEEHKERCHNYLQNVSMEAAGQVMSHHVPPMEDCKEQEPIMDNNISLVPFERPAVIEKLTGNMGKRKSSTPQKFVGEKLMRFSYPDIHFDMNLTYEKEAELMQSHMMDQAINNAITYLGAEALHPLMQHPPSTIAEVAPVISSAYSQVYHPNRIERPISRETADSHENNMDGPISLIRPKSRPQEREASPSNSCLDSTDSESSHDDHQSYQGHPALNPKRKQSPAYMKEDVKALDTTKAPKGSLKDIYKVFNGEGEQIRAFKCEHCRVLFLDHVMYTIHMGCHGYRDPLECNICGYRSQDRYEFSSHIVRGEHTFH
T4 sequence (Q96SW2 whole entry): as the sequence (Q96SW2 whole entry) above
T4 sequence (Q16531 whole entry partner): as the sequence (Q16531 whole entry partner) above
T5 sequence (Q13422 whole entry): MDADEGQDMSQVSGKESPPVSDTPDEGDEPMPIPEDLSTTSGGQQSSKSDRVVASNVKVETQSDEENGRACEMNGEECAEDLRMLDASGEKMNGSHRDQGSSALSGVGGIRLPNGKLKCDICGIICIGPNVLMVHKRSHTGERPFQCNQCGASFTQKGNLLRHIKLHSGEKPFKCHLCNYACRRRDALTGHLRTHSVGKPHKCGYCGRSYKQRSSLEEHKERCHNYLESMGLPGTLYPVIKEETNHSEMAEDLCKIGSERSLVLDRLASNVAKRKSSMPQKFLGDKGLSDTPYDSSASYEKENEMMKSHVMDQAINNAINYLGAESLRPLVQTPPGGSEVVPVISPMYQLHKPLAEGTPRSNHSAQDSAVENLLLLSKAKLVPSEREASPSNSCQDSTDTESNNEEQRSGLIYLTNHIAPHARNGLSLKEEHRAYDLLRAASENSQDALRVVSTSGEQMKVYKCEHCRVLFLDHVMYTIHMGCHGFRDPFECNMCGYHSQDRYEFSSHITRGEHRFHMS
T5 sequence (Q96SW2 whole entry): as the sequence (Q96SW2 whole entry) above
T5 sequence (Q16531 whole entry partner): as the sequence (Q16531 whole entry partner) above
T1 sequence (P30291 whole entry): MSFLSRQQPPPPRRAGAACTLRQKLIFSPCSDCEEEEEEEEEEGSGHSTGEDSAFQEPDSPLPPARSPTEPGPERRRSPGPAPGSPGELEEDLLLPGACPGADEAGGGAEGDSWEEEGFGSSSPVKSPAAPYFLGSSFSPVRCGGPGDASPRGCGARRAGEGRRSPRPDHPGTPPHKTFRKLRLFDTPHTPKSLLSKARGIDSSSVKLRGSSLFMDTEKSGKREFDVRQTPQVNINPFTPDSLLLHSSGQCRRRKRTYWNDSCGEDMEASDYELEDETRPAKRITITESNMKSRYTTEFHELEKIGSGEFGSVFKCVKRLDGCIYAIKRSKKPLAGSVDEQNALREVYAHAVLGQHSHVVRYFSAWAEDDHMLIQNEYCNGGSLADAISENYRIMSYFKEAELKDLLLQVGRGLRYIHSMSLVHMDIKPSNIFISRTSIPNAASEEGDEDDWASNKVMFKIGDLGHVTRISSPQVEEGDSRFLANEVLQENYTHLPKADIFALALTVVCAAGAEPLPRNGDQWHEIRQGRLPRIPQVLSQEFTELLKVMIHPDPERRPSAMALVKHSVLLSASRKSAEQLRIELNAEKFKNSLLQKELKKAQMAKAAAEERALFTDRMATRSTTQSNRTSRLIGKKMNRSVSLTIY
T1 sequence (Q96SW2 whole entry): as the sequence (Q96SW2 whole entry) above
T1 sequence (Q16531 whole entry partner): as the sequence (Q16531 whole entry partner) above

SMILES	substrate protein remaining % WEE1 (WEE1)	substrate protein remaining % CK1α (CK1α)	inhibition at 0.01 µM (H292)	inhibition at 0.5 µM (H292)	substrate protein remaining % IKZF3 (IKZF3)	substrate protein remaining % IKZF2 (IKZF2)	substrate protein remaining % IKZF1 (IKZF1)	substrate protein remaining % GSPT1 (GSPT1)
O=C1CCN(N2Cc3cc(CN4CCC(c5ncc6ccsc6n5)CC4)ccc3C2=O)C(=O)N1 [GT-08115, 1-(1-oxo-5-((4-(thieno[2,3-d]pyrimidin-2-yl)piperidin-1-yl)methyl)isoindolin-2-yl)dihydropyrimidine-2,4(1H,3H)-dione]	B (80%< substrate protein remaining %≤ 100%)	A (0% ≤ substrate protein remaining % ≤ 80%)	20 to 40%	15 to 20%	B (80%< substrate protein remaining %≤ 100%)	B (80%< substrate protein remaining %≤ 100%)	B (80%< substrate protein remaining %≤ 100%)	A (0% ≤ substrate protein remaining % ≤ 80%)
O=C1CCN(N2C(=O)c3ccc(CN4CCC(c5ncnc6sc7c(c56)CCCC7)CC4)cc3C2=O)C(=O)N1 [GT-08424, 2-(2,4-dioxotetrahydropyrimidin-1(2H)-yl)-5-((4-(5,6,7,8-tetrahydrobenzo[4,5]thieno[2,3-d]pyrimidin-4-yl)piperidin-1-yl)methyl)isoindoline-1,3-dione]	B (80%< substrate protein remaining %≤ 100%)	A (0% ≤ substrate protein remaining % ≤ 80%)	20 to 40%	10 to 15%	B (80%< substrate protein remaining %≤ 100%)	B (80%< substrate protein remaining %≤ 100%)	B (80%< substrate protein remaining %≤ 100%)	A (0% ≤ substrate protein remaining % ≤ 80%)
O=C1CCN(N2C(=O)c3ccc(CN4CCC(c5ncc6ccsc6n5)CC4)cc3C2=O)C(=O)N1 [GT-08427, 2-(2,4-dioxotetrahydropyrimidin-1(2H)-yl)-5-((4-(thieno[2,3-d]pyrimidin-2-yl)piperidin-1-yl)methyl)isoindoline-1,3-dione]	A (0% ≤ substrate protein remaining % ≤ 80%)	B (80%< substrate protein remaining %≤ 100%)	15 to 20%	20 to 40%	B (80%< substrate protein remaining %≤ 100%)	A (0% ≤ substrate protein remaining % ≤ 80%)	B (80%< substrate protein remaining %≤ 100%)	B (80%< substrate protein remaining %≤ 100%)
Cc1csc2ncnc(C3=CCN(Cc4ccc5c(c4)C(=O)N(N4CCC(=O)NC4=O)C5=O)CC3)c12 [GT-08428, 2-(2,4-dioxotetrahydropyrimidin-1(2H)-yl)-5-((4-(5-methylthieno[2,3-d]pyrimidin-4-yl)-3,6-dihydropyridin-1(2H)-yl)methyl)isoindoline-1,3-dione]	A (0% ≤ substrate protein remaining % ≤ 80%)	B (80%< substrate protein remaining %≤ 100%)	5 to 10%	20 to 40%	A (0% ≤ substrate protein remaining % ≤ 80%)	A (0% ≤ substrate protein remaining % ≤ 80%)	B (80%< substrate protein remaining %≤ 100%)	B (80%< substrate protein remaining %≤ 100%)
O=C1CCN(N2C(=O)c3ccc(CN4CC=C(c5ncnc6sc(-c7ccccc7)cc56)CC4)cc3C2=O)C(=O)N1 [GT-08430, 2-(2,4-dioxotetrahydropyrimidin-1(2H)-yl)-5-((4-(6-phenylthieno[2,3-d]pyrimidin-4-yl)-3,6-dihydropyridin-1(2H)-yl)methyl)isoindoline-1,3-dione]	A (0% ≤ substrate protein remaining % ≤ 80%)	B (80%< substrate protein remaining %≤ 100%)	15 to 20%	10 to 15%	B (80%< substrate protein remaining %≤ 100%)	B (80%< substrate protein remaining %≤ 100%)	B (80%< substrate protein remaining %≤ 100%)	B (80%< substrate protein remaining %≤ 100%)
Cc1nc(C2=CCN(Cc3ccc4c(c3)C(=O)N(N3CCC(=O)NC3=O)C4=O)CC2)c2c3c(sc2n1)CCCC3 [GT-08432, 2-(2,4-dioxotetrahydropyrimidin-1(2H)-yl)-5-((4-(2-methyl-5,6,7,8-tetrahydrobenzo[4,5]thieno[2,3-d]pyrimidin-4-yl)-3,6-dihydropyridin-1(2H)-yl)methyl)isoindoline-1,3-dione]	B (80%< substrate protein remaining %≤ 100%)	A (0% ≤ substrate protein remaining % ≤ 80%)	20 to 40%	20 to 40%	A (0% ≤ substrate protein remaining % ≤ 80%)	B (80%< substrate protein remaining %≤ 100%)	B (80%< substrate protein remaining %≤ 100%)	A (0% ≤ substrate protein remaining % ≤ 80%)
O=C1CCN(N2C(=O)c3ccc(CN4CC=C(c5ncnc6sc7c(c56)CCC7)CC4)cc3C2=O)C(=O)N1 [GT-08434, 5-((4-(6,7-dihydro-5H-cyclopenta[4,5]thieno[2,3-d]pyrimidin-4-yl)-3,6-dihydropyridin-1(2H)-yl)methyl)-2-(2,4-dioxotetrahydropyrimidin-1(2H)-yl)isoindoline-1,3-dione]	B (80%< substrate protein remaining %≤ 100%)	A (0% ≤ substrate protein remaining % ≤ 80%)	20 to 40%	15 to 20%	A (0% ≤ substrate protein remaining % ≤ 80%)	A (0% ≤ substrate protein remaining % ≤ 80%)	A (0% ≤ substrate protein remaining % ≤ 80%)	A (0% ≤ substrate protein remaining % ≤ 80%)
Cc1nc(C2=CCN(Cc3ccc4c(c3)CN(N3CCC(=O)NC3=O)C4=O)CC2)c2c3c(sc2n1)CCC3 [GT-08437, 1-(5-((4-(2-methyl-6,7-dihydro-5H-cyclopenta[4,5]thieno[2,3-d]pyrimidin-4-yl)-3,6-dihydropyridin-1(2H)-yl)methyl)-1-oxoisoindolin-2-yl)dihydropyrimidine-2,4(1H,3H)-dione]	A (0% ≤ substrate protein remaining % ≤ 80%)	B (80%< substrate protein remaining %≤ 100%)	20 to 40%	15 to 20%	A (0% ≤ substrate protein remaining % ≤ 80%)	B (80%< substrate protein remaining %≤ 100%)	A (0% ≤ substrate protein remaining % ≤ 80%)	A (0% ≤ substrate protein remaining % ≤ 80%)
O=C1CCN(N2Cc3cc(CN4CCN(c5nc(Cl)nc6c5SCC6)CC4)ccc3C2=O)C(=O)N1 [GT-08439, 1-(5-((4-(2-chloro-6,7-dihydrothieno[3,2-d]pyrimidin-4-yl)piperazin-1-yl)methyl)-1-oxoisoindolin-2-yl)dihydropyrimidine-2,4(1H,3H)-dione]	A (0% ≤ substrate protein remaining % ≤ 80%)	B (80%< substrate protein remaining %≤ 100%)	20 to 40%	20 to 40%	A (0% ≤ substrate protein remaining % ≤ 80%)	B (80%< substrate protein remaining %≤ 100%)	A (0% ≤ substrate protein remaining % ≤ 80%)	A (0% ≤ substrate protein remaining % ≤ 80%)
O=C1CCN(N2Cc3cc(CN4CCN(c5ncnc6ccsc56)CC4)ccc3C2=O)C(=O)N1 [GT-08443, 1-(1-oxo-5-((4-(thieno[3,2-d]pyrimidin-4-yl)piperazin-1-yl)methyl)isoindolin-2-yl)dihydropyrimidine-2,4(1H,3H)-dione]	A (0% ≤ substrate protein remaining % ≤ 80%)	B (80%< substrate protein remaining %≤ 100%)	20 to 40%	40 to 60%	B (80%< substrate protein remaining %≤ 100%)	B (80%< substrate protein remaining %≤ 100%)	B (80%< substrate protein remaining %≤ 100%)	B (80%< substrate protein remaining %≤ 100%)
